From patent publication US20110054039A1, “USE OF ALKYL SULFATES OR SULFONATES AGAINST PROPIONIBACTERIUM ACNES” (priority 2008, published 2011) come the findings set out here.

In brackets after ≈: the same amount, converted by molar mass. Where two headings read alike, the source gives them in different places. Bounds are passed on as bounds.

Common to all, as to type: cell-based
In assay [1] the test system is Propionibacterium acnes NCTC 737. Description: Minimum Inhibitory Concentration (MIC) assay, broth microdilution. Particulars: P. acnes NCTC 737, Wilkins-Chalgren broth pH 6.0, anaerobic, 37° C., 72 hours. The method, then: (§1) The test micro-organism represented the cutaneous propionibacteria. […] The propionibacteria are clinically significant due to their involvement in acne. This is a very common, complex and multi-factorial skin disease in which P. acnes and other Propionibacterium spp. […] They are also opportunistic pathogens in compromised hosts.
(§2) The propionibacteria were cultured and maintained on Wilkins-Chalgren Anaerobe Medium (agar and broth) at pH 6.0; all cultures were incubated anaerobically at 37° C. for 72 hours.
This is a standard international method for quantitatively assessing the antimicrobial activity of a compound in a liquid medium. […] The culture media were as described above.
The wells were inoculated with a liquid suspension of freshly grown micro-organism and incubated under the conditions described above. After incubation, the microtitre plate was examined visually (with the aid of a light box) for cloudiness in each well, which would indicate microbial growth. The MIC value was recorded as the lowest concentration of test compound required to inhibit microbial growth, ie the lowest concentration for which the liquid in the well remained clear.
The assays included both negative (culture medium with no micro-organisms) and positive (culture medium plus diluting solvent plus micro-organism) controls.
(§3) MIC, MBC and DDA assays, as described above, were carried out using as the test compound sodium n-tetradecyl sulphate (STS, ex Sigma Aldrich, UK), dissolved in distilled water. All the experiments were conducted in triplicate. For the DDA experiments, 200 μg of the test compound was loaded onto each disc.
(§4) The MIC/MBC experiments were conducted in triplicate, with the exception of those for SDS and ADS which were conducted in duplicate. The DDAs were performed either in triplicate, in which case standard deviations are quoted in parentheses, or as a single replicate. For the DDA experiments, 200 μg of the test compound was loaded onto each disc.

Assay [2] has the same test system. Put plainly: Minimum Biocidal (Bactericidal) Concentration (MBC) assay. Conditions: P. acnes NCTC 737; for MBC: sub-culture on antibiotic-free agar after MIC assay. The method, then: as §1, §2
This assay, normally carried out after an MIC assay, determines the minimum concentration of a compound that is lethal to the micro-organism being tested.
These samples were then individually sub-cultured on antibiotic-free agar medium, under the incubation conditions described above. Following incubation they were examined visually for microbial growth.
as §3, §4

Assay [3] shares this test system. Description: Disc Diffusion Assay (DDA). Particulars: P. acnes NCTC 737, 200 μg of test compound per disc; for zone of inhibition at 200 µg/disc: Cutibacterium acnes, NCTC737, read-out: DDA (diameter of zone of inhibition). The method, then: as §1, §2
This is an internationally recognised standard method for qualitatively assessing the antimicrobial activity of a compound.
(§5) A sterile paper disc was impregnated with a sample of the test compound in a suitable solvent and 30 minutes allowed for the solvents to evaporate (where possible). The disc was then placed on an agar plate onto which the test micro-organism had been inoculated. The plate was then incubated under the conditions described above, following which it was examined visually for signs of microbial growth. […] The diameter of this zone of ‘inhibition’ was measured using a ProtoCOL™ automated zone sizer (Synbiosis, Cambridge, UK).
as §3, §4
Background: Agar diffusion results depend on both activity and mobility in agar.

Assay [4] has the same test system. Put plainly: Supplemented Disc Diffusion Assay (agar with salt or lipid). Conditions: P. acnes NCTC 737, 200 μg per disc; for zone of inhibition at 200 µg/disc: Cutibacterium acnes, NCTC737, 72 h. The method, then: as §1, §2, §5
Performance under these conditions can provide a more reliable indication of activity on topical application.
as §3, §4

Setting [5] is: Cutibacterium acnes, NCTC737, read-out: MIC.
Setting [6] is: Cutibacterium acnes, NCTC737, read-out: MBC.
Where [7] appears, read: agar supplemented with sodium chloride (100 mM), read-out: DDA + salt.
Setting [8] is: agar supplemented with triolein at 1% v/v, read-out: DDA + lipid.

As a reminder, the MIC is the lowest concentration that inhibits growth of the organism. As a reminder, the MBC is the smallest concentration meeting the test's criterion for killing. With “triethanolamine lauryl sulphate [Triethanolamine dodecyl sulphate]”, the MIC in assay [1] was determined as 3.9 mg/L. Moreover, in assay [2], the MIC/MBC ratio came to 0.25 and the MBC amounted to 15.6 mg/L. The “DDA (diameter of zone of inhibition)” value in assay [3] turned out to be 30.19 mm. Further, the “DDA + salt” value in assay [4] (agar supplemented with sodium chloride (100 mM)) was 28.33 mm. In assay [4] (agar supplemented with triolein at 1% v/v), the “DDA + lipid” value was 25.53 mm.

In the case of `CCCCCCCCCOS(=O)(=O)[O-].[Na+]` [Sodium n-nonyl sulphate, sodium n-nonyl sulphate], the MIC in assay [1] (setting [5]) turned out to be 250 mg/L. In assay [2] (setting [6]), the MBC was determined as 250 mg/L. The MIC/MBC ratio in assay [2] worked out at 1. The zone of inhibition at 200 µg/disc in assay [3], in assay [4] (setting [7]) and in assay [4] (setting [8]) was 0 mm in each case.

For `CCCCCCCCCCCOS(=O)(=O)[O-].[Na+]` [Sodium n-undecyl sulphate, sodium n-undecyl sulphate], the MIC in assay [1] (setting [5]) is 31.2 mg/L. The minimum bactericidal concentration (MBC) in assay [2] (setting [6]) was 62.5 mg/L. Also, in assay [2], the MIC/MBC ratio is listed as 0.5. Further, the figures for the zone of inhibition at 200 µg/disc in assay [3], in assay [4] (setting [7]) and in assay [4] (setting [8]) were 17.3 mm, 19.9 mm and 17.7 mm, respectively.

Take `CCCCCCCCCCCCCCCCS(=O)(=O)[O-].[Na+]` [Sodium 1-hexadecane sulphonate, sodium 1-hexadecane sulphonate]: the MIC in assay [1] (setting [5]) is 1.95 mg/L. For the same molecule, the minimum bactericidal concentration (MBC) in assay [2] (setting [6]) is 3.9 mg/L. In addition, in assay [2], the MIC/MBC ratio amounted to 0.5. Further, the zone of inhibition at 200 µg/disc in assay [3], in assay [4] (setting [7]) and in assay [4] (setting [8]) was 0 mm in each case.

For the molecule `CCCCCCCCCCOS(=O)(=O)[O-].[Na+]` [Sodium decyl sulphate, sodium decyl sulphate], the minimal inhibitory concentration (MIC) in assay [1] (setting [5]) came out at 250 mg/L. In addition, in assay [2] (setting [6]), the MBC was > 250 mg/L. Also, the MIC/MBC ratio in assay [2] was <1. In addition, the zone of inhibition at 200 µg/disc in assay [3], in assay [4] (setting [7]) and in assay [4] (setting [8]) was 0 mm each time.

Regarding `CCCCCCCS(=O)(=O)[O-].[Na+]` [Sodium 1-heptane sulphonate, sodium 1-heptane sulphonate], the MIC in assay [1] (setting [5]) is > 250 mg/L. Moreover, the MBC in assay [2] (setting [6]) was > 250 mg/L. The zone of inhibition at 200 µg/disc in assay [3] amounted to 0 mm; in assay [4] (setting [7]) it was 0 mm; in assay [4] (setting [8]), 10.6 mm.

For `CCCCCCCCCCCCCCCC(=O)O` [palmitic acid, reference compound], the minimum inhibitory concentration (MIC) in assay [1] (setting [5]) was > 1000 mg/L. Moreover, the minimum bactericidal concentration (MBC) in assay [2] (setting [6]) was > 1000 mg/L.

`CCCCCCCCCCCCCCCCCCS(=O)(=O)O.[Na]` [Sodium 1-octadecane sulphonic acid, sodium 1-octadecane sulphonic acid]: in assay [1] (setting [5]), the minimum inhibitory concentration (MIC) is 125 mg/L. For the same molecule, the MBC in assay [2] (setting [6]) was > 250 mg/L. Besides, in assay [2], the MIC/MBC ratio is <0.5. Also, the zone of inhibition at 200 µg/disc in assay [3], in assay [4] (setting [7]) and in assay [4] (setting [8]) was 0 mm throughout.

Take `CCCCCCCCCCCCCCCCCCOS(=O)(=O)[O-].[Na+]` [Sodium octadecyl sulphate, sodium octadecyl sulphate]: the MIC in assay [1] (setting [5]) came to 1.95 mg/L. Further, the MBC in assay [2] (setting [6]) came out at 62.5 mg/L. For the same molecule, in assay [2], the MIC/MBC ratio was found to be 0.03. Also, the zone of inhibition at 200 µg/disc in assay [3] worked out at 9.41 mm; in assay [4] (setting [7]), 9.3 mm; in assay [4] (setting [8]), 9.92 mm.

As for `CCCCCCOS(=O)(=O)[O-].[Na+]` [Sodium n-hexyl sulphate, sodium n-hexyl sulphate], in assay [1] (setting [5]), the MIC is > 250 mg/L. The minimum bactericidal concentration (MBC) in assay [2] (setting [6]) was > 250 mg/L. Moreover, the zone of inhibition at 200 µg/disc in assay [3], in assay [4] (setting [7]) and in assay [4] (setting [8]) was 0 mm in each case.

In assay [1], `CCCCCCCCCCCC(=O)O` [Laurie acid, reference compound] had a minimal inhibitory concentration (MIC) of 15.6 mg/L (≈ 0.0779 mM). Moreover, the minimal bactericidal concentration (MBC) in assay [2] worked out at 31.25 mg/L (≈ 0.156 mM).

For `CCCCCCCCCCCCCC(=O)O` [myristic acid, reference compound], the minimal inhibitory concentration (MIC) in assay [1] (setting [5]) is > 1000 mg/L. In addition, the MBC in assay [2] (setting [6]) is > 1000 mg/L.
